From ChEMBL document CHEMBL5096168, “An insight on medicinal aspects of novel HIV-1 capsid protein inhibitors” (Eur J Med Chem, 2021)
Blank lines part the entries; values can stand above or below the compound they belong to.

Tests used:
[1] = tested on: Human immunodeficiency virus 1; test: Antiviral activity against HIV 1 NL4-3 infected in human MT2 cells assessed as inhibition of replication by XTT assay; format: functional, organism-based; conditions: Human immunodeficiency virus 1, NL4-3, MT2
[2] = tested on: Human immunodeficiency virus 1; test: Antiviral activity against recombinant HIV 1 expressing luciferase and envelope glycoprotein of HIV-1 YU-2 infected in Cf2Th-CCR5 cells assessed as inhibition of viral infection by measuring luciferase activity; format: functional, organism-based; conditions: Human immunodeficiency virus 1, Cf2Th-CCR5
[3] = tested on: Human immunodeficiency virus 1; test: Antiviral activity against HIV 1 NL4-3 infected in human C8166 cells expressing LTR-luciferase reporter gene assessed as inhibition of viral replication pretreated with virus for 1.5 hrs followed by compound addition and measured after 3 days; format: functional, organism-based; conditions: Human immunodeficiency virus 1, NL4-3, C8166
[4] = Modulation of capsid disassembly in HIV 1 NL4-3 infected in human C8166 cells expressing LTR-luciferase reporter gene assessed as inhibition of viral protein disassembly; format: functional, cell-based; conditions: Human immunodeficiency virus 1, NL4-3, C8166
[5] = tested on: Human immunodeficiency virus 1; test: Antiviral activity against HIV 1 infected in human SUP-T1 cells assessed as inhibition of viral replication by measuring luciferase activity after 72 hrs by steady glo reagent based luminescence assay; format: functional, organism-based; conditions: Human immunodeficiency virus 1, SUP-T1, 72 h
[6] = tested on: Human immunodeficiency virus 1; test: Antiviral activity against HIV 1 in human C8166 cells expressing LTR-luciferase reporter gene assessed as inhibition of viral replication incubated for 72 hrs by multiple-cycle viral replication assay; format: functional, organism-based; conditions: Human immunodeficiency virus 1, C8166, 72 h
[7] = tested on: Human immunodeficiency virus 1; test: Antiviral activity against HIV 1 NL4-3; format: functional, organism-based; conditions: Human immunodeficiency virus 1, NL4-3
[8] = tested on: Human immunodeficiency virus 1; test: Antiviral activity against HIV 1 NL4-3 infected in […] MT2 cells assessed as reduction in luciferase activity incubated for 4 to 5 days; format: functional, organism-based; conditions: Human immunodeficiency virus 1, NL4-3, MT2
[9] = tested on: Human immunodeficiency virus 2; test: Antiviral activity against HIV 2; format: functional, organism-based
[10] = Metabolic stability in C57Bl/6 mouse liver microsomes assessed as half life by LC-MS/MS analysis; format: ADME, Microsome
[11] = tested on: Human immunodeficiency virus 1; test: Antiviral activity against HIV 1; format: functional, organism-based
[12] = tested on: Human immunodeficiency virus 1; test: Antiviral activity against HIV 1 infected in human TZM-bl cells by MTT assay; format: functional, organism-based; conditions: Human immunodeficiency virus 1, TZM-bl
[13] = tested on: TZM; test: Cytotoxicity against human TZM-bl cells assessed as reduction in cell viability incubated for 1 day by CytoTox-Glo stain based assay; format: functional; conditions: 24 h
[14] = tested on: Human immunodeficiency virus 1; test: Antiviral activity against HIV 1 infected in human PBMC cells assessed as viral inhibition incubated for 7 days with media replacement for every 3 days by ELISA; format: functional, organism-based; conditions: Human immunodeficiency virus 1, PBMC
[15] = tested on: Human immunodeficiency virus 1; test: Antiviral activity against HIV 1 infected in HeLa cells transfected with CD4,[…] and LacZ gene assessed as reduction in viral replication measured after 72 hrs by ELISA; format: functional, organism-based; conditions: Human immunodeficiency virus 1, HeLa
[16] = target: Structural capsid protein (Human immunodeficiency virus 1, UniProt Q76129); test: Inhibition of HIV 1 capsid CTD dimerization incubated for 5 hrs by TR-FRET assay
[17] = tested on: Human immunodeficiency virus 1; test: Antiviral activity against HIV 1 assessed as log 10 reduction in viral load; format: functional
[18] = tested on: MT4; test: Cytotoxicity against […] MT4 cells; format: functional; conditions: Homo sapiens
[19] = tested on: Human immunodeficiency virus 1; test: Antiviral activity against HIV 1 infected in […] MT4 cells; format: functional, organism-based; conditions: Human immunodeficiency virus 1, MT4

Sequence of Structural capsid protein (Q76129 whole entry): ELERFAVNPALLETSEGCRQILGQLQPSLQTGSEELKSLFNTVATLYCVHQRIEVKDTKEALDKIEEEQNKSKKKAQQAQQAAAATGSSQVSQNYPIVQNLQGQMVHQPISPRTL

Structure (SMILES): Cc1[nH]c2ccccc2c1CC(=O)N[C@@H](Cc1ccccc1)C(=O)N(C)c1ccccc1
EC50 [1]: 570 nM

IC50 [2]: 22500 nM
Structure (SMILES): O=C(O)c1ccc(-c2nc(-c3ccccc3)c(-c3ccccc3)[nH]2)cc1

Structure (SMILES): CCc1cc(-c2ccc(C(F)(F)F)o2)n(-c2ccc3c(c2)nc(-c2cc(C(=O)N4CCCC4)ccc2O)n3Cc2ccc(=O)[nH]c2)n1
EC50 [3]: 62 nM | IC50 [4]: 61 nM

EC50 [5]: 1800 nM | EC50 [6]: 1400 nM
Structure (SMILES): O=C1NC(c2cccnc2)c2c(-c3ccccc3)n[nH]c21 (stereo not given)

IC50 [7]: 57000 nM
Structure (SMILES): O=C(O)c1ccc(-c2ccc3c(c2)nc(-c2c[nH]nc2-c2cccc(Cl)c2)n3CCCn2ccnc2)cc1

EC50 [8]: 0.025 nM
Structure (SMILES): Cn1nc(NS(C)(=O)=O)c2cccc(-n3c([C@H](Cc4cc(F)cc(F)c4)NC(=O)Cn4nc(C(F)F)c5c4C(F)(F)[C@H]4C[C@@H]54)nc4cc(-c5ncccn5)ccc4c3=O)c21

EC50 [9]: 0.14 nM | half-life [10]: 7.2 h | EC50 [11]: 0.14 nM
Structure (SMILES): CC(C)(C#Cc1ccc(-c2ccc(Cl)c3c(NS(=O)(=O)C4CC4)nn(CC(F)(F)F)c23)c([C@H](Cc2cc(F)cc(F)c2)NC(=O)Cn2nc(C(F)(F)F)c3c2C(F)(F)[C@@H]2C[C@H]32)n1)S(C)(=O)=O

IC50 [2]: 33300 nM
Structure (SMILES): O=C(O)c1ccc(-c2nc(-c3ccc4oc5ccc(-c6nc(-c7ccc(C(=O)O)cc7)[nH]c6-c6ccccc6)cc5c4c3)c(-c3ccccc3)[nH]2)cc1

Structure (SMILES): COc1ccc(N(C)C(=O)[C@H](Cc2cc(F)cc(F)c2)NC(=O)c2cccc(-c3cn(-c4ccc([N+](=O)[O-])cc4)nn3)c2)cc1
EC50 [12]: 2130 nM | CC50 [13]: > 35500 nM

Structure (SMILES): CCCCC[C@](C)(NC(=O)[C@H](CC(C)C)NC(=O)[C@H](CC(C)C)NC(=O)[C@H](CC(=O)O)NC(=O)[C@](C)(CCCCC)NC(=O)[C@H](Cc1ccccc1)NC(=O)[C@@H](NC(=O)[C@@H](N)[C@@H](C)CC)[C@@H](C)O)C(=O)N[C@@H](Cc1ccc(O)cc1)C(=O)N[C@@H](Cc1ccc(O)cc1)C(=O)NCC(=O)N1CCC[C@H]1C(=O)O
IC50 [14]: 4000 nM

Structure (SMILES): O=c1c2ccccc2[se]n1-c1ccccc1 [EBSELEN]
EC50 [15]: 4250 nM | IC50 [16]: 46.7 nM

EC50 [19]: 0.1 nM
Structure (SMILES): CC(C)(C#Cc1ccc(-c2ccc(Cl)c3c(NS(C)(=O)=O)nn(CC(F)(F)F)c23)c([C@H](Cc2cc(F)cc(F)c2)NC(=O)Cn2nc(C(F)(F)F)c3c2C(F)(F)[C@@H]2C[C@H]32)n1)S(C)(=O)=O [LENACAPAVIR]
log(activity) [17]: 0.5 | CC50 [18]: 27000 nM
